In US5334594A, “Amphoteric tricyclic compound” (Hokoriku Pharmaceutical Co., Ltd., priority 1992, dated 1994):
Counter-ions that a name gives are not always drawn. Like-named read-outs stand apart in the source and are kept apart here.

Key:
[1] = tested on: compound 48/80-induced lethality (antihistaminic (H1) activity); assay: Inhibitory effect on compound 48/80-induced lethality in rats (antihistaminic activity); format: in vivo, rat (male Wistar); conditions: Rattus norvegicus, po, 2 h; 1 mg/kg orally one hour before compound 48/80 (1 mg/kg i.v.); survival after two hours; read-out: Survival rate
Description: 1. Inhibitory Effects on Compound 48/80-Induced Lethality in Rats (Antihistaminic Activity)
The evaluation of antihistaminic activity was carried out according to the method of Niemegeers et al. (Arch. Int. Pharmacodyn. Ther., 234, 164 (1978)).
Male Wistar rats, 6 weeks of age, were used in the experiments. Compound 48/80 (formaldehyde condensation product of p-methoxy-N-methylphenethylamine) was administered intravenously to rats at a lethal dose of 1 mg/kg. Survival rates were determined according to an all or non criteria by using the numbers of rats that survived after two hours. Test compounds (1 mg/kg) were administered orally to rats one hour before the administration of compound 48/80.

[2] = tested on: 48 h homologous passive cutaneous anaphylaxis (PCA); assay: Inhibitory effects on 48 h homologous passive cutaneous anaphylaxis (PCA) in rats (antiallergic activity); format: in vivo, rat (male Wistar); conditions: 1 mg/kg orally one hour before antigen challenge
Description: 2. Inhibitory Effects on 48 h Homologous Passive Cutaneous Anaphylaxis (PCA) in Rats (Antiallergic Activity)
The induction and evaluation of antiallergic activity were carried out according to the method of Makino et al. (Japan J. Pharmacology, 52, 87 (1990)).
Male Wistar rats, 6 weeks of age, were passively sensitized by intracutaneous injection on the back at a volume of 0.1 ml of 20- or 40-fold diluted anti-DNP-As rat serum. After 48 hours, the animals were challenged by an intravenous injection of 0.5 ml saline solution containing 1 mg of DNP-As and 5 mg of Evans blue. The animals were sacrificed 30 minutes after the challenge and then the extravasated dye was extracted with 1N KOH and acetone. After neutralization with 1N H3 PO4, the amount of dye was determined by measuring the absorbance of the extract at 620 nm. Test compounds (1 mg/kg) were orally administered to rats one hour before the antigen challenge. The inhibitory activity of test compounds were obtained as percent inhibition of PCA by comparing the results obtained from control rats.

[3] = tested on: histamine-induced bronchoconstriction; assay: Inhibitory effects on histamine-induced bronchoconstriction in anesthetized guinea-pigs (antiasthmatic activity); format: in vivo, guinea-pig (male Hartley); conditions: for ED50: Cavia porcellus, 2 h, read-out: Antiasthmatic activity (B) ED50
Description: 3. Inhibitory Effects on Histamine-Induced Bronchoconstriction in Anesthetized Guinea-Pigs (Antiasthmatic Activity)
The induction and evaluation of antiasthmatic activity were carried out according to the method of Makino et al. (J. Pharm. Pharmacol., 42, 236 (1990)).
Male Hartley guinea-pigs, 6 weeks of age, were anesthetized with urethane ( 1.5 g/kg, i.p. ). The carotid artery and jugular vein were cannulated to measure arterial blood pressure and to facilitate intravenous histamine administration. The trachea was cannulated and the animals were ventilated using a respiratory pump (60 strokes/min; 4 ml/stroke). Changes in insufflation pressure induced by the administration of histamine (20 μg/kg, i.v.) at a constant airflow were constantly monitored as percentage values based on the maximum pressure (100%) (Bronchospasm tramsducer 7020, Ugo Basile). Test compounds were administered orally to animals two hours before the administration of histamine. The ED50 values (doses which induce 50% inhibition of histamine-induced broncho-constriction compared to inhibition observed in control) were calculated using dose-inhibition curves.

[4] = target: T1, histamine (H1) receptor (Cavia porcellus, UniProt P31389); assay: Inhibitory effects on ex vivo [^3 H]-mepyramine binding to guinea-pig cerebral cortex (degree of penetration into brain); format: in vivo, guinea-pig (male Hartley); conditions: for ED50: 2 h, oral, two hours, ex vivo [^3 H]-mepyramine binding, guinea-pig cerebral cortex, read-out: Degree of penetration activity (A) ID50; for Selectivity (C/B): ratio of ID50 (brain penetration, C) to ED50 (antiasthmatic activity, B)
T1 construct: Separated cerebral cortices were homogenized in 50-folds volume of 50 mM Na/K-phosphate buffer (pH 7.4); from tissue; host or cells: guinea-pig cerebral cortex, crude membrane fraction (homogenate)
Description: 4. Inhibitory Effects on Ex Vivo [^3 H]-Mepyramine Binding to Guinea-Pig Cerebral Cortex (Degree of Penetration into Brain)
The evaluation of histamine (H1) receptor affinity on guinea-pig cerebral cortex was carried out according to the method of Ahn et al. (Eur. J. Pharmacol., 127, 153 (1986)).
Male Hartley guinea-pigs, 6 weeks of age, were administered orally with test compounds or vehicles. After two hours, animals were killed by exsanguination and brains were rapidly isolated. Separated cerebral cortices were homogenized in 50-folds volume of 50 mM Na/K-phosphate buffer (pH 7.4). These homogenates were used as crude membrane fractions for receptor binding assay. [^3 H]-mepyramine was used as a radio-active ligand. […] The ID50 values (doses which induce 50% inhibition of specific binding of vehicle treated group) were calculated using dose-inhibition curves.

[5] = target: muscarinic acetylcholine receptor; assay: Inhibition of [^3 H]-QNB binding to rat cerebral cortex membrane (muscarinic acetylcholine receptor binding assay); conditions: -log Ki by Cheng and Prusoff
[6] = oral, two hours before histamine (20 μg/kg, i.v.), anesthetized guinea-pigs

T1 sequence (P31389 whole entry): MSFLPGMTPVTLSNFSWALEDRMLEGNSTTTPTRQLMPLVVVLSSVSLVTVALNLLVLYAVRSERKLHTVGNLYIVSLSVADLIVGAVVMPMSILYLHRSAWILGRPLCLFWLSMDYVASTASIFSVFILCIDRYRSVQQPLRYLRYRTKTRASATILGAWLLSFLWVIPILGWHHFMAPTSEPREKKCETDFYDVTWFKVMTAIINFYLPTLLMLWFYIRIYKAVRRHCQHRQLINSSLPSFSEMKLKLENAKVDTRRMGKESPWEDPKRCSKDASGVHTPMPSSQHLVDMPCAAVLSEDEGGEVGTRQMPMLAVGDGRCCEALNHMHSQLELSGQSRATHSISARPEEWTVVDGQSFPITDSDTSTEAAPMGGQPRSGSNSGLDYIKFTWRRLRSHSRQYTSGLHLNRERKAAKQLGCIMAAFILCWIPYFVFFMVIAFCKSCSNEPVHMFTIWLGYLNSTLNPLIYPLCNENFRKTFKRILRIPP

| SMILES | responders at 1 mg/kg [1] [%] | Antiallergic activity (A) inhibition (%) [2] [%] | pKi [5] | other results |
| --- | --- | --- | --- | --- |
| O=C(O)CCCCCN1CCC(=C2c3ccc(F)cc3OCc3cccnc32)CC1 [Example 12-(2), 6-[4-(8-Fluoro-5,11-dihydrobenz[b]oxepino[4,3-b]pyridin-11-ylidene)piperidino]hexanoic Acid . Hydrochloride] | 100 | – | – | – |
| O=C(O)CCN1CCC(=C2c3cccc(Cl)c3OCc3cccnc32)CC1 [Example 4-(2), 3-[4-(7-Chloro-5,11-dihydrobenz[b]oxepino[4,3-b]pyridin-11-ylidene)piperidino]propionic Acid. Hydrochloride] | 100 | – | – | – |
| CN1CCC(=C2c3ccccc3CCc3cccnc32)CC1 [Reference compound A, Azatadine, reference compound] | 60 | 77 | 8.47 | ED50 [3, 6]: 0.001 mg/kg; ED50 [4]: 0.028 mg/kg; Selectivity (C/B) [4]: 28 |
| CCOC(=O)N1CCC(=C2c3ccc(Cl)cc3CCc3cccnc32)CC1 [Reference compound B, Loratadine] | 60 | 38 | 6.04 | ED50 ([3]; po): 0.13 mg/kg |
| O=C(O)CCCCN1CCC(=C2c3ccc(F)cc3OCc3cccnc32)CC1 [Example 11-(2), 5-[4-(8-Fluoro-5,11-dihydrobenz[b]oxepino[4,3-b]pyridin-11-ylidene)piperidino]valetic Acid] | 100 | – | – | – |
| O=C(O)CCCCCN1CCC(=C2c3ccc(Cl)cc3OCc3cccnc32)CC1 [Example 21-(2), 6-[4-(8-Chloro-5,11-dihydrobenz[b]oxepino[4,3-b]pyridin-11-ylidene)piperidino]hexanoic Acid . Hydrochloride] | 100 | – | – | – |
| CC(CN1CCC(=C2c3ccc(F)cc3OCc3cccnc32)CC1)C(=O)O (stereo not shown) [Example 14-(2), 3-[4-(8-Fluoro-5,11-dihydrobenz[b]oxepino[4,3-b]pyridin-11-ylidene)piperidino]-2-methylpropionic Acid] | 100 | – | – | – |
| O=C(O)CCCCN1CCC(=C2c3ccc(Cl)cc3OCc3cccnc32)CC1 [Example 20-(2), 5-[4-(8-Chloro-5,11-dihydrobenz[b]oxepino[4,3-b]pyridin-11-ylidene)piperidino]valeric Acid. Hydrochloride] | 100 | – | – | – |
| O=C(O)CCN1CCC(=C2c3cc(Cl)ccc3OCc3cccnc32)CC1 [Example 6-(2), 3-[4-(9-Chloro-5,11-dihydrobenz[b]oxepino[4,3-b]pyridin-11-ylidene)piperidino]propionic Acid] | 100 | – | – | – |
| CC(=O)N1CCC(=C2c3ccc(Cl)cc3OCc3cccnc32)CC1 [Reference compound C] | 20 | -11 | 5.72 | Antiasthmatic activity (B) ED50 [3, 6]: No effect (1 mg/kg) |
| O=C(O)CCN1CCC(=C2c3ccc(F)cc3OCc3cccnc32)CC1 [Example 2-(2), 3-[4-(8-Fluoro-5,11-dihydrobenz[b]oxepino[4,3-b]pyridin-11-ylidene)piperidino]propionic Acid] | 100 | 78 | < 5 | ED50 [3, 6]: 0.046 mg/kg; ED50 [4]: 32 mg/kg; Selectivity (C/B) [4]: 696 |
| O=C(O)CCN1CCC(=C2c3ccccc3OCc3cccnc32)CC1 [Example 1-(2), 3-[4-(5,11-Dihydrobenz[b]oxepino[4,3-b]pyridin-11-ylidene)piperidino]propionic Acid.Hydrochloride] | 80 | 80 | – | ED50 [3, 6]: 0.082 mg/kg; ED50 [4]: 36 mg/kg; Selectivity (C/B) [4]: 439 |
| O=C(O)CCCN1CCC(=C2c3ccc(F)cc3OCc3cccnc32)CC1 [Example 10-(2), 4-[4-(8-Fluoro-5,11-dihydrobenz[b]oxepino[4,3-b]pyridin-11-ylidene)piperidino]butyric Acid] | 100 | – | – | – |
| O=C(O)CCN1CCC(=C2c3ccc(F)cc3Oc3cccnc32)CC1 [Example 9-(2), 3-[4-(7-Fluoro-10H-benzo[b]pyrano[3,2-b]pyridin-10-ylidene)piperidino]propionic Acid] | 100 | – | – | – |
| O=C(O)CCN1CCC(=C2c3ccccc3Oc3cccnc32)CC1 [Example 8-(2), 3-[4-(10H-benzo[b]pyrano[3,2-b]pyridin-10-ylidene)piperidino]propionic Acid] | 100 | – | – | – |
| O=C(O)CCN1CCC(=C2c3ccc(Cl)cc3OCc3cccnc32)CC1 [Example 5-(2), 3-[4-(8-Chloro-5,11-dihydrobenz[b]oxepino[4,3-b]pyridin-11-ylidene)piperidino]propionic Acid. Hydrochloride] | 100 | 79 | < 5 | ED50 [3, 6]: 0.023 mg/kg; ED50 [4]: 53 mg/kg; Selectivity (C/B) [4]: 2304 |
| O=C(O)CCCN1CCC(=C2c3ccc(F)cc3Oc3cccnc32)CC1 [Example 23-(2), 4-[4-(7-Fluoro-10H-benzo[b]pyrano[3,2-b]pyridin-10-ylidene)piperidino]butyric Acid] | 100 | – | – | – |
| CCOC(=O)CN1CCC(=C2c3ccc(Cl)cc3CCc3cccnc32)CC1 [Reference compound D, reference compound] | 40 | 41 | 5.84 | ED50 [3, 6]: 0.29 mg/kg; ED50 [4]: 11 mg/kg; Selectivity (C/B) [4]: 38 |
| O=C(O)CCCN1CCC(=C2c3ccc(Cl)cc3OCc3cccnc32)CC1 [Example 18-(2), 4-[4-(8-Chloro-5,11-dihydrobenz[b]oxepino[4,3-b]pyridin-11-ylidene)piperidino]butyric Acid. Hydrochloride] | 80 | – | – | – |
